Assay results as given in patent US10821115B2, “Compounds that inhibit Mcl-1 protein” (priority 2017, dated 2020).
Read-outs that look alike come from different tables or passages of the source.

How the values were obtained:
[1] = molecular target: recombinant human Mcl-1 (residues 171-327) / Bim interaction (Homo sapiens (Human), UniProt Q07820); assay: biochemical; assay type: binding; details: read-out: Mcl-1 HTRF IC50
[2] = test system: human multiple myeloma cell line, OPM-2; assay: Cell viability assay (OPM-2 10 FBS), CellTiter-Glo; assay type: cell-based
How it was run: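 OPM-2 cells at 3000 cells/well in RPMI 1640 with 10% FBS were exposed to serially diluted compounds for 16 h at 37 °C, 5% CO2.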

[3] = 0.1 nM Mcl-1(171-327), 0.05 nM biotin-Bim (51-76)
[4] = read-out: OPM-2 10% FBS IC50 IP, OPM-2 cells, 10% FBS, 16 h incubation
[5] = TR-FRET, Mcl-1(171-327) / biotin-Bim (51-76)
[6] = Homo sapiens, OPM-2, 16 h, read-out: OPM-2 10% FBS IC50 IP, OPM-2 cells, 10% FBS, 16 h, CellTiter-Glo
[7] = read-out: OPM-2 10% FBS IC50 IP, OPM-2 cells, 10% FBS, 16 h, CellTiter-Glo

recombinant human Mcl-1 (residues 171-327) / Bim interaction, sequence (Q07820 171-327): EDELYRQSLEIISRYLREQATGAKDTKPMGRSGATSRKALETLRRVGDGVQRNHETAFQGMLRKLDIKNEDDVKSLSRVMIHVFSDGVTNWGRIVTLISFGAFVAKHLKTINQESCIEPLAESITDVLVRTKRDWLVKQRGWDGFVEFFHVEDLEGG

Structure (SMILES) | IC50 [1, 3] [nM] | IC50 [2, 4] [nM] | IC50 [1, 5] [nM] | IC50 [2, 6] [nM] | IC50 [2, 7] [nM]
CO[C@]1(CN2CCN3CCN(S(C)(=O)=O)C[C@@H]3C2)/C=C/C[C@H](C)[C@@H](C)S(=O)(=O)NC(=O)c2ccc3c(c2)N(C[C@@H]2CC[C@H]21)C[C@@]1(CCCc2cc(Cl)ccc21)CO3 (single isomer, unassigned) [Example 238] | 0.176 | 76 |  |  | 
CO[C@@]1(CN2CCN3CCN(C(C)C)C[C@@H]3C2)/C=C/C[C@H](C)[C@@H](C)S(=O)(=O)NC(=O)c2ccc3c(c2)N(C[C@@H]2CC[C@H]21)C[C@@]1(CCCc2cc(Cl)ccc21)CO3 (single isomer, unassigned) [Example 240] | 0.128 | 141 |  |  | 
CO[C@@]1(CN2CCN3CCN(C(C)C)C[C@@H]3C2)/C=C/C[C@H](C)[C@@H](C)S(=O)(=O)NC(=O)c2ccc3c(c2)N(C[C@@H]2CC[C@H]21)C[C@@]1(CCCc2cc(Cl)ccc21)CO3 (single isomer, unassigned) [Example 241] | 0.15 | 137 |  |  | 
CO[C@@]1(CN2CCN3CCN(S(C)(=O)=O)C[C@@H]3C2)/C=C/C[C@H](C)[C@@H](C)S(=O)(=O)NC(=O)c2ccc3c(c2)N(C[C@@H]2CC[C@H]21)C[C@@]1(CCCc2cc(Cl)ccc21)CO3 (single isomer, unassigned) [Example 244] | 1.65 | 638 |  |  | 
CO[C@@]1(CN2CCN3CCN(S(C)(=O)=O)C[C@@H]3C2)/C=C/C[C@H](C)[C@@H](C)S(=O)(=O)NC(=O)c2ccc3c(c2)N(C[C@@H]2CC[C@H]21)C[C@@]1(CCCc2cc(Cl)ccc21)CO3 (single isomer, unassigned) [Example 245] | 0.12 | 58 |  |  | 
CO[C@@]1(CN2CCN3CC[C@H](F)C[C@@H]3C2)/C=C/C[C@H](C)[C@@H](C)S(=O)(=O)NC(=O)c2ccc3c(c2)N(C[C@@H]2CC[C@H]21)C[C@@]1(CCCc2cc(Cl)ccc21)CO3 (single isomer, unassigned) [Example 283] | 0.354 | 839 |  |  | 
CO[C@@]1(CN2CCN3CC[C@H](F)C[C@@H]3C2)/C=C/C[C@H](C)[C@@H](C)S(=O)(=O)NC(=O)c2ccc3c(c2)N(C[C@@H]2CC[C@H]21)C[C@@]1(CCCc2cc(Cl)ccc21)CO3 (single isomer, unassigned) [Example 284] | 0.288 | 230 |  |  | 
CO[C@@]1(CN2CCN([C@H]3CCOC3)CC2)/C=C/C[C@H](C)[C@@H](C)S(=O)(=O)NC(=O)c2ccc3c(c2)N(C[C@@H]2CC[C@H]21)C[C@@]1(CCCc2cc(Cl)ccc21)CO3 (single isomer, unassigned) [Example 285] | 0.107 | 62 |  |  | 
CO[C@@]1(CN2CCN([C@@H]3CCOC3)CC2)/C=C/C[C@H](C)[C@@H](C)S(=O)(=O)NC(=O)c2ccc3c(c2)N(C[C@@H]2CC[C@H]21)C[C@@]1(CCCc2cc(Cl)ccc21)CO3 (single isomer, unassigned) [Example 286] | 0.155 | 50 |  |  | 
CO[C@@]1(CN2CCN3CCC(F)(F)C[C@@H]3C2)/C=C/C[C@H](C)[C@@H](C)S(=O)(=O)NC(=O)c2ccc3c(c2)N(C[C@@H]2CC[C@H]21)C[C@@]1(CCCc2cc(Cl)ccc21)CO3 (single isomer, unassigned) [Example 288] | 0.484 | 652 |  |  | 
CO[C@@]1(CN2CCN3CCC(F)(F)C[C@H]3C2)/C=C/C[C@H](C)[C@@H](C)S(=O)(=O)NC(=O)c2ccc3c(c2)N(C[C@@H]2CC[C@H]21)C[C@@]1(CCCc2cc(Cl)ccc21)CO3 (single isomer, unassigned) [Example 289] | 0.214 | 131 |  |  | 
CO[C@@]1(CN2CCN3CCN(C(=O)CCS(=O)(=O)c4ccccc4)C[C@@H]3C2)/C=C/C[C@H](C)[C@@H](C)S(=O)(=O)NC(=O)c2ccc3c(c2)N(C[C@@H]2CC[C@H]21)C[C@@]1(CCCc2cc(Cl)ccc21)CO3 (single isomer, unassigned) [Example 294] | 0.66 | 687 |  |  | 
CO[C@@]1(CN2CCN3CCN(C(=O)CCS(=O)(=O)c4ccccc4)C[C@H]3C2)/C=C/C[C@H](C)[C@@H](C)S(=O)(=O)NC(=O)c2ccc3c(c2)N(C[C@@H]2CC[C@H]21)C[C@@]1(CCCc2cc(Cl)ccc21)CO3 (single isomer, unassigned) [Example 295] | 0.321 | 104 |  |  | 
CO[C@]1(CN2CCN3CCC(F)(F)C[C@@H]3C2)/C=C/C[C@H](C)[C@@H](C)S(=O)(=O)NC(=O)c2ccc3c(c2)N(C[C@@H]2CC[C@H]21)C[C@@]1(CCCc2cc(Cl)ccc21)CO3 (single isomer, unassigned) [Example 298] | 0.279 | 262 |  |  | 
CO[C@]1(CN2CCN3CCC(F)(F)C[C@H]3C2)/C=C/C[C@H](C)[C@@H](C)S(=O)(=O)NC(=O)c2ccc3c(c2)N(C[C@@H]2CC[C@H]21)C[C@@]1(CCCc2cc(Cl)ccc21)CO3 (single isomer, unassigned) [Example 299] | 0.367 | 456 |  |  | 
CO[C@]1(CN2CCN3CC[C@H](F)C[C@@H]3C2)/C=C/C[C@H](C)[C@@H](C)S(=O)(=O)NC(=O)c2ccc3c(c2)N(C[C@@H]2CC[C@H]21)C[C@@]1(CCCc2cc(Cl)ccc21)CO3 (single isomer, unassigned) [Example 325] | 0.18 | 192 |  |  | 

Structure (SMILES) | IC50 [1, 3] [nM] | IC50 [2, 4] [nM] | IC50 [1, 5] [nM] | IC50 [2, 6] [nM] | IC50 [2, 7] [nM]
CO[C@]1(CN2CCN3CC[C@H](F)C[C@@H]3C2)/C=C/C[C@H](C)[C@@H](C)S(=O)(=O)NC(=O)c2ccc3c(c2)N(C[C@@H]2CC[C@H]21)C[C@@]1(CCCc2cc(Cl)ccc21)CO3 (single isomer, unassigned) [Example 326] | 0.307 | 488 |  |  | 
CO[C@]1(CN2CCN3CCCC[C@@H]3C2)/C=C/C[C@H](C)[C@@H](C[C@H](C)O)S(=O)(=O)NC(=O)c2ccc3c(c2)N(C[C@@H]2CC[C@H]21)C[C@@]1(CCCc2cc(Cl)ccc21)CO3 (single isomer, unassigned) [Example 362] | 0.061 | 58 |  |  | 
CO[C@]1(CN2CCN3CCCC[C@@H]3C2)/C=C/C[C@H](C)[C@@H](C[C@H](C)O)S(=O)(=O)NC(=O)c2ccc3c(c2)N(C[C@@H]2CC[C@H]21)C[C@@]1(CCCc2cc(Cl)ccc21)CO3 (single isomer, unassigned) [Example 363] | 0.08 | 101 |  |  | 
C[C@@H]1[C@@H](C)CCC[C@]2(CN3CCOC[C@H]3CO2)[C@@H]2CC[C@H]2CN2C[C@@]3(CCCc4cc(Cl)ccc43)COc3ccc(cc32)C(=O)NS1(=O)=O (single isomer, unassigned) [Example 399] | 0.401 | 2100 |  |  | 
C[C@@H]1[C@@H](C)CCC[C@@](O)(CN=[N+]=[N-])[C@@H]2CC[C@H]2CN2C[C@@]3(CCCc4cc(Cl)ccc43)COc3ccc(cc32)C(=O)NS1(=O)=O (single isomer, unassigned) [Example 506] | 3.8 | 7430 |  |  | 
C[C@@H]1[C@@H](C)CCC[C@@](O)(CN)[C@@H]2CC[C@H]2CN2C[C@@]3(CCCc4cc(Cl)ccc43)COc3ccc(cc32)C(=O)NS1(=O)=O (single isomer, unassigned) [Example 507] | 13.7 | > 33300 |  |  | 
CO[C@@]1(C#CCCN2CCOCC2)/C=C/C[C@H](C)[C@@H](C)S(=O)(=O)NC(=O)c2ccc3c(c2)N(C[C@@H]2CC[C@H]21)C[C@@]1(CCCc2cc(Cl)ccc21)CO3 (single isomer, unassigned) [Example 100012] |  |  | 0.275 | 1130 | 
C[C@@H]1[C@@H](C)C/C=C/[C@@](O)(C#CCCN2CCOCC2)[C@@H]2CC[C@H]2CN2C[C@@]3(CCCc4cc(Cl)ccc43)COc3ccc(cc32)C(=O)NS1(=O)=O (single isomer, unassigned) [Example 100017] |  |  | 0.039 |  | 40
C[C@@H]1[C@@H](C)C/C=C/[C@@](O)(C#CCN2CCOCC2)[C@@H]2CC[C@H]2CN2C[C@@]3(CCCc4cc(Cl)ccc43)COc3ccc(cc32)C(=O)NS1(=O)=O (single isomer, unassigned) [Example 100018] |  |  | 0.061 |  | 49
C[C@@H]1[C@@H](C)C/C=C/C(O)([C@H]2OCCN(C)C2=O)[C@@H]2CC[C@H]2CN2C[C@@]3(CCCc4cc(Cl)ccc43)COc3ccc(cc32)C(=O)NS1(=O)=O (single isomer, unassigned) [Example 100019] |  |  | 0.182 | 58 | 
C[C@@H]1[C@@H](C)CCC[C@@](C)(O)[C@@H]2CC[C@H]2CN2C[C@@]3(CCCc4cc(Cl)ccc43)COc3ccc(cc32)C(=O)NS1(=O)=O (single isomer, unassigned) [Example 100048] |  |  | 0.187 | 551 | 
C[C@@H]1[C@@H](C)CCC[C@](O)(CO)[C@@H]2CC[C@H]2CN2C[C@@]3(CCCc4cc(Cl)ccc43)COc3ccc(cc32)C(=O)NS1(=O)=O (single isomer, unassigned) [Example 100052] |  |  | 0.191 | 424 | 
C[C@@H]1[C@@H](C)CCC[C@]2(COC(=O)O2)[C@@H]2CC[C@H]2CN2C[C@@]3(CCCc4cc(Cl)ccc43)COc3ccc(cc32)C(=O)NS1(=O)=O (single isomer, unassigned) [Example 100055] |  |  | 1.27 | 4630 | 
C[C@@H]1[C@@H](C)CCC[C@](O)(CC#N)[C@@H]2CC[C@H]2CN2C[C@@]3(CCCc4cc(Cl)ccc43)COc3ccc(cc32)C(=O)NS1(=O)=O (single isomer, unassigned) [Example 100080] |  |  | 0.61 | 818 | 
C[C@@H]1[C@@H](C)CCC[C@@](O)(CC#N)[C@@H]2CC[C@H]2CN2C[C@@]3(CCCc4cc(Cl)ccc43)COc3ccc(cc32)C(=O)NS1(=O)=O (single isomer, unassigned) [Example 100081] |  |  | 7.33 | 5930 | 
